# Results taken from paper PMC10525927, “First Generation of Antioxidant Precursors for Bioisosteric Se-NSAIDs: Design, Synthesis, and In Vitro and In Vivo Anticancer Evaluation” (Antioxidants, 2023).
# Experiments:
# Format in all cases: cell-based
# HT-29 colon cancer cells = assay: MTT cell viability assay, HT-29; conditions: mean ± SD; for IC50 / GI50: Homo sapiens, HT-29, 48 h
# Protocol: (§1) The cell lines were purchased from the American Type Culture Collection (ATCC). The cancer cell lines DU-145, PC-3, T-47D, MDA-MB-231, H1299, and A549, and the non-tumorigenic cells (184B5 and BEAS-2B), were maintained in RPMI 1640 medium (Gibco, Alcobendas, Madrid, Spain) supplemented with 10% fetal bovine serum (FBS; Gibco) and 1% antibiotics (10.00 units/mL penicillin and 10.00 mg/mL streptomycin; Gibco). Colon cancer cells HT-29 and HCT-116 were cultured in McCoy’s 5A medium (Gibco) supplemented with 10% fetal bovine serum (FBS; Gibco) and 1% antibiotics (10.00 units/mL penicillin and 10.00 mg/mL streptomycin; Gibco). Cells were maintained in tissue culture flasks at 37 °C and 5% CO2. The culture medium was replaced every three days.
# (§2) The antiproliferative activity and selectivity in vitro of the Se-NSAID derivatives were determined by the (3-(4,5-dimethylthiazol-2-yl)-2,5-diphenyltetrazolium bromide) (MTT) assay. Compounds were dissolved in DMSO at a concentration of 0.01 M and serial dilutions were prepared. The Se-NSAID derivatives were tested at seven concentrations ranging between 1 and 100 µM in the colon (HT-29 and HCT-116), prostate (DU-145 and PC-3), breast (MDA-MB-231 and T-47D), and lung (H1299 and A549) cancer cell lines. The non-tumorigenic breast (184B5) and lung (BEAS-2B) cell lines were also tested to assess the selectivity of the compounds following the same procedure. A total of 1 × 10^4 cells were seeded per well in 96-well plates and incubated at 5% CO2 and 37 °C for 24 h. Then, cells were treated with either DMSO or increasing concentrations of the corresponding Se-NSAID derivatives for 48 h. A volume of 20 µL of MTT (5 mg/mL) was added to each well 2.5 h before the termination point. At the end of the experiment, the medium was removed, and the resultant formazan crystals formed by mitochondrial reduction of MTT were dissolved in 50 µL of DMSO. Absorbance was measured at 550 nm. IC50, GI50, TGI, and LC50 values were calculated using OriginPro version 8.5.1. software by nonlinear curve fitting. Selectivity indexes (SI) were calculated as the ratio of the IC50 values determined for the nonmalignant and the tumoral cells in the breast (IC50 (184B5)/IC50 (MDA-MB-231) and IC50 (184B5)/IC50 (T-47D)) and lung (IC50 (BEAS-2B)/IC50 (H1299) and IC50 (BEAS-2B)/IC50 (A549)) cell lines. Data were obtained from at least three independent experiments performed in triplicates.
# [1] = system: HCT-116 colon cancer cells; assay: MTT cell viability assay, HCT-116; conditions: mean ± SD; for IC50 / GI50: Homo sapiens, HCT-116, 48 h; for GI50 / TGI HCT-116: Table S1; for TGI HCT-116: in vitro TGI concentration, 48 h
# Protocol: as §1, §2
# [2] = system: BEAS-2B non-tumorigenic lung (bronchial epithelium) cells; assay: MTT cell viability assay, BEAS-2B; conditions: 48 h, mean ± SD; for LD50 BEAS-2B / GI50 / TGI BEAS-2B: Table S1; for TGI BEAS-2B: in vitro TGI concentration
# Protocol: as §1, §2
# A549 lung cancer cells = assay: MTT cell viability assay, A549; conditions: mean ± SD
# Protocol: as §1, §2
# [3] = system: 184B5 non-tumorigenic breast (mammary gland) cells; assay: MTT cell viability assay, 184B5; conditions: mean ± SD; for GI50 / TGI 184B5: Table S1; for TGI 184B5: in vitro TGI concentration
# Protocol: as §1, §2
# [4] = system: MDA-MB-231 breast cancer cells; assay: MTT cell viability assay, MDA-MB-231; conditions: mean ± SD; for IC50 / GI50: Homo sapiens, MDA-MB-231, 48 h; for GI50 / TGI MDA-MB-231: Table S1; for TGI MDA-MB-231: in vitro TGI concentration, 48 h
# Protocol: as §1, §2
# H1299 lung cancer cells = assay: MTT cell viability assay, H1299; conditions: mean ± SD; for IC50 / GI50: Homo sapiens, NCI-H1299, 48 h
# Protocol: as §1, §2
# [5] = system: T-47D breast cancer cells; assay: MTT cell viability assay, T-47D; conditions: 48 h, mean ± SD; for LD50 T-47D / GI50 / TGI T-47D: Table S1; for IC50 / GI50: Homo sapiens, T47D; for TGI T-47D: in vitro TGI concentration
# Protocol: as §1, §2
# [6] = system: PC-3 prostate cancer cells; assay: MTT cell viability assay, PC-3; conditions: 48 h, mean ± SD; for GI50 / LD50 PC-3 / TGI PC-3: Table S1; for TGI PC-3: in vitro TGI concentration
# Protocol: as §1, §2
# [7] = system: DU-145 prostate cancer cells; assay: MTT cell viability assay, DU-145; conditions: mean ± SD; for LD50 DU-145 / TGI DU-145: 48 h; for LD50 DU-145 / GI50 / TGI DU-145: Table S1; for IC50 / GI50: Homo sapiens, DU-145, 48 h; for TGI DU-145: in vitro TGI concentration
# Protocol: as §1, §2
# [8] = system: panel of eight cancer cell lines; assay: MTT cell viability assay, statements on the whole panel; conditions: 48 h
# Protocol: as §1, §2
# [9] = in vitro TGI concentration, 48 h, Table S1
# [10] = Homo sapiens, BEAS-2B, nonmalignant lung cells
# [11] = Homo sapiens, A549, 48 h, Table S1
# [12] = 48 h, nonmalignant breast cells
# [13] = Homo sapiens, 184B5, 48 h, nonmalignant breast cells
Structure (SMILES),IC50 (HT-29 colon cancer cells),GI50 (HT-29 colon cancer cells; Table S1),IC50 [1],GI50 [1],TGI HCT-116 [1],"GI50 ([2]; Homo sapiens, BEAS-2B)","IC50 [2, 10]","IC50 (A549 lung cancer cells; Homo sapiens, A549, 48 h)",GI50 (A549 lung cancer cells; [11]),"GI50 ([3]; Homo sapiens, 184B5, 48 h)","IC50 [3, 13]",IC50 [4],GI50 [4],IC50 (H1299 lung cancer cells),GI50 (H1299 lung cancer cells; Table S1),IC50 [5],GI50 [5],TGI T-47D [5],IC50 [6],GI50 [6],further results
"CC(C(=O)[Se][Se]C(=O)C(C)c1cccc(C(=O)c2ccccc2)c1)c1cccc(C(=O)c2ccccc2)c1 (stereo not drawn) [Compound 4, 2-(3-Benzoylphenyl)propanoic diselenoperoxyanhydride]",39.7 ± 3.3 µM,24.4 ± 2.6 µM,5.9 ± 1.1 µM,4.3 ± 0.6 µM,6.7 ± 1.9 µM,4.2 ± 0.6 µM,~5 µM,11.7 ± 0.9 µM,8.1 ± 0.4 µM,4.8 ± 0.3 µM,~5 µM,4.3 ± 1.2 µM,2.4 ± 0.5 µM,31.6 ± 1.7 µM,24.6 ± 1.8 µM,26 ± 2 µM,> 100 µM,9.5 ± 2.3 µM,5.8 ± 0.6 µM,4.8 ± 0.4 µM,"LD50 HT-29 (HT-29 colon cancer cells; 48 h, Table S1): 62.5 ± 14.3 µM; TGI HT-29 (HT-29 colon cancer cells; [9]): 36.2 ± 3.0 µM; LD50 BEAS-2B [2]: 5.4 ± 0.4 µM; IC50 ([2]; nonmalignant lung cells): 5.2 ± 0.4 µM; TGI BEAS-2B [2]: 4.7 ± 0.3 µM; TGI A549 (A549 lung cancer cells; [9]): 19.9 ± 3.4 µM; IC50 [3, 12]: 5.9 ± 0.8 µM; TGI 184B5 ([3]; 48 h): 5.4 ± 0.4 µM; TGI MDA-MB-231 [4]: 4.2 ± 1.7 µM; LD50 H1299 (H1299 lung cancer cells; 48 h, Table S1): 43.5 ± 1.8 µM; TGI H1299 (H1299 lung cancer cells; [9]): 33.6 ± 1.6 µM; LD50 T-47D [5]: 27.2 ± 2.3 µM; LD50 PC-3 [6]: 6.7 ± 1.2 µM; TGI PC-3 [6]: 5.5 ± 0.5 µM; LD50 DU-145 [7]: 39.6 ± 2.4 µM; IC50 [7]: 27.9 ± 3.2 µM; GI50 [7]: 19.5 ± 3.5 µM; TGI DU-145 [7]: 28.5 ± 2.9 µM"
"COc1ccc2cc(C(C)C(=O)[Se][Se]C(=O)C(C)c3ccc4cc(OC)ccc4c3)ccc2c1 (stereo not drawn) [Compound 3, 2-(6-Methoxynaphthalen-2-yl)propanoic diselenoperoxyanhydride]",> 50 µM,6.8 ± 1.4 µM,9.1 ± 5.9 µM,9.3 ± 4.7 µM,30.9 ± 16.7 µM,7 ± 2.5 µM,11.2 ± 1 µM,> 50 µM,3.3 ± 0.4 µM,7.1 ± 0.5 µM,11.9 ± 1 µM,5.7 ± 0.8 µM,5.2 ± 0.2 µM,8.1 ± 2.5 µM,6.7 ± 1.1 µM,5.6 ± 0.1 µM,1.8 ± 0.2 µM,3.1 ± 0.3 µM,5.2 ± 0.2 µM,4.4 ± 0.3 µM,"IC50 HT-29 (HT-29 colon cancer cells; 48 h): no activity at all; LD50 BEAS-2B [2]: 12.3 ± 2.1 µM; TGI BEAS-2B [2]: 9.0 ± 1.2 µM; IC50 (A549 lung cancer cells; 48 h): > 100 µM; IC50 A549 (A549 lung cancer cells; 48 h): no activity at all; TGI 184B5 ([3]; 48 h): 9.4 ± 0.2 µM; TGI MDA-MB-231 [4]: 5.6 ± 0.8 µM; LD50 T-47D [5]: 6.3 ± 0.7 µM; LD50 PC-3 [6]: 5.9 ± 0.9 µM; TGI PC-3 [6]: 5.0 ± 0.1 µM; GI50 ([8]; eight cancer cell lines, read-out: GI50 across all the cancer cell lines tested): < 10 µM; IC50 ([8]; read-out: average IC50 in prostate (DU-145 and PC-3) and breast (MDA-MB-231 and T-47D) cancer cell lines): ~5 µM; LD50 DU-145 [7]: 10.4 ± 2.4 µM; IC50 [7]: 6.1 ± 0.6 µM; GI50 [7]: 5 ± 0.2 µM; TGI DU-145 [7]: 6.1 ± 0.6 µM"
"COc1ccc2c(c1)c(CC(=O)[Se][Se]C(=O)Cc1c(C)n(C(=O)c3ccc(Cl)cc3)c3ccc(OC)cc13)c(C)n2C(=O)c1ccc(Cl)cc1 [Compound 2, 2-(1-(4-Chlorobenzoyl)-5-methoxy-2-methyl-1H-indol-3-yl)acetic diselenoperoxyanhydride]",> 50 µM,> 100 µM,> 50 µM,44.5 ± 3.4 µM,81.5 ± 2.3 µM,> 100 µM,> 100 µM,> 50 µM,> 100 µM,> 100 µM,> 100 µM,> 50 µM,23.1 ± 14.3 µM,> 50 µM,53.2 ± 1.2 µM,> 50 µM,25.5 ± 10.2 µM,39.0 ± 8.5 µM,> 50 µM,> 100 µM,"IC50 BEAS-2B ([2]; nonmalignant lung cells): completely inactive; IC50 184B5 [3, 12]: completely inactive; antiproliferative activity against all the eight cell lines ([8]; result in words): no activity; IC50 [7]: > 50 µM; GI50 [7]: 58.4 ± 8.4 µM"
